The source of these data is US6638964B2, “Sulfonamide-containing indole compounds” (Eisai Co., Ltd., priority 1999, dated 2003).

In one test the test system is aorta pieces of rat. Description: Antiangiogenic effect: capillary formation from rat aorta pieces incubated in collagen. In kind it is cell-based. Conditions: numbers of capillaries formed around the aorta, 7th day from addition of test compound. On the procedure:
The inhibition degree of angiogenesis which was observed when aorta pieces of rat were incubated in collagen was defined as an antiangiogenic effect. That is, the aorta excised from male rat of Sprague-Dawley strain (10-12 weeks age) was washed with a Hanks' solution so that fat tissues around there were removed minutely. The aorta was incised to prepare pieces of 2 mm square and they were allowed to stand in a 24-well plate holding the endothelial cells upside. Then, 500 μl of neutralized Type I collagen (Cell Matrix Type I-A; manufactured by Nitta Gelatin) were poured over each well and allowed to stand at room temperature for about 20 minutes in a clean bench to solidify the gel. After confirming that the gel was solidified, 500 μl of MCDB 131 medium (manufactured by Chlorella Kogyo) were added thereto followed by incubating in a CO2 incubator (5% CO2) at 37° C. On the next day, the culture medium was exchanged with 500 μl of MCDB 131 medium containing the test compound and the incubation was continued. After three days, the medium was again exchanged with 500 μl of MCDB 131 medium containing the test compound and, at the stage of the 7th day from the initiation of addition of the test compound, numbers of capillaries formed around the aorta were counted under a microscope. The solution containing the test compound was prepared in a three-fold dilution system where 10 μg/ml was the highest concentration.
Inhibiting rate was calculated from the following formula and 50% inhibiting concentration (IC50) for each test compound was determined.
(§1) Inhibiting Rate (%)=(C−T)/C^×100
C: Numbers of capillaries when no compound was added
T: Numbers of capillaries when a compound was added

Test [1] relates to Endothelial cells derived from human umbilical vein (HUVEC). Kind of test: Inhibitory effect of growth of endothelial cells (MTT method). In kind it is cell-based. The settings on record: 72 h, incubating for three days. As for the experimental part: Endothelial cells derived from human umbilical vein (HUVEC; manufactured by Sanko Junyaku) incubated in an EGM medium (manufactured by Sanko Junyaku) containing 100 Units of penicillin and 100 μg/ml of streptomycin were adjusted to 0.8-1×10^4 cells/ml and each 100 μl were separately placed on a 96-well plate. After incubating in a CO2 incubator (5% CO2) at 37 ° C. overnight, 100 μl of EGM medium containing test compound diluted in a three-fold manner were added thereto followed by incubating for three days. The cell numbers at that time were measured by MTT method. That is, 50 μl of phosphate buffer containing 0.33% of 3-(4,5-dimethylthiazol-2-yl)-2,5-diphenyltetrazolium bromide (MTT) was added thereto and incubation was continued for 3-4 hours. Then, after the supernatant liquid of the culture was removed, 100 μl of dimethyl sulfoxide (DMSO) was added to dissolve a formazane which was formed in the cells and the absorbance at the wave length of 540 nm was measured by use of plate reader (manufactured by Corona Denki).
(§2) Inhibiting rate was calculated from the following formula and 50% inhibiting concentration (IC50) was determined for each compound.
Inhibition Rate (%)=(C−T)/C×100
(§3) C: Absorbance when no compound was added
(§4) T: Absorbance when a compound was added

Another test has as its system Mouse B16 melanoma cells. Description: Inhibitory effect of proliferation of mouse B16 melanoma (MTT method). In kind it is cell-based. The settings on record: 72 h, incubating for 3 days. On the procedure: Mouse B16 melanoma cells incubated in a Dulbecco-modified Eagle medium (DMED; manufactured by Nissui Seiyaku) containing 10% of fetal bovine serum, 100 Units/ml of penicillin and 100 μg/ml of streptomycin were adjusted to 2^×10^4 cells/ml and each 100 μl thereof were separately placed on a 96-well plate. After an incubation was carried out in a CO2 incubator (5% CO2) at 37° C. for one night, then 100 μl of the above culture containing a test compound diluted in a 3-fold series were added thereto followed by incubating for 3 days and the cell numbers at that time were measured by an MTT method. Incidentally, a treatment with a 0.33% MTT solution was carried out for 1-2 hour(s).
as §2, §1, §3, §4
(Formazan colour is commonly taken as a measure of viable cells.)

Test [2] has as its system HCT 116 cell strain derived from human cancer of the colon. Kind of test: Antitumor effect, HCT 116 human colon cancer subcutaneously transplanted to nude mice. In kind it is in vivo, nude mice (KSN). The settings on record: 22nd day. On the procedure:
(§5) In the meanwhile, evaluation of an antitumor effect was carried out in accordance with a method of Koyanagi, et al. (Cancer Res., 94, 1702-1706, 1994) using a KP-1 cell strain derived from human pancreatic cancer and an HCT 116 cell strain derived from human cancer of the colon. The above-mentioned human cancer cells (5^×10^6 cells) were subcutaneously transplanted to nude mice (KSN) of 6 to 7 weeks age and, since the stage where it became to the size of about 100 mm^3, administration of the compound of the present invention was started. In the experiments, ten mice were used for a group to which no drug was administered while, in a drug-administered group, five mice were used for each dose. The dose of 50 mg/kg, 100 mg/kg or 200 mg/kg was continuously administered per os two times a day and the size of the tumor on the 22nd day from the beginning of the administration was compared with that in the group to which no drug was administered. The result was 37%, 30% and 11%, respectively in the KP-1 cell strain derived from human pancreatic cancer and 0.2%, 0.3% and 0.0%, respectively in the HCT 116 cell strain derived from human cancer of the colon in the case of a group to which the compound of Example 1 was administered for example.

The subject of test [3] is KP-1 cell strain derived from human pancreatic cancer. Description: Antitumor effect, KP-1 human pancreatic cancer subcutaneously transplanted to nude mice. In kind it is in vivo, nude mice (KSN). The settings on record: for size of the tumor compared with that in the group to which no drug was administered: 22nd day, KP-1. As for the experimental part:
as §5

[4] abbreviates: 50 mg/kg per os two times a day.
The mark [5] stands for this setting: 100 mg/kg per os two times a day.
Setting [6] is: 200 mg/kg per os two times a day.

Converted amounts (≈) assume the structure as drawn.

By IC50 is commonly meant the midpoint of a concentration-inhibition curve. Read a low IC50 as inhibition by little substance.

For `Nc1ncc(S(=O)(=O)Nc2ccc(Br)c3c(Cl)c[nH]c23)cn1` [Example 10, 2-Amino-N-(4-bromo-3-chloro-1H-indole-7-yl)-5-pyrimidinesulfonamide], the values for the concentration for half-maximal inhibition (IC50) (in the test on aorta pieces of rat; in test [1]; in the test with Mouse B16 melanoma cells) were 0.06 µg/mL (≈ 0.149 µM), 0.38 µg/mL (≈ 0.944 µM) and 23 µg/mL (≈ 57.1 µM), respectively.

Regarding `Cc1ccc(NS(=O)(=O)c2cccc(C#N)c2)c2[nH]cc(C#N)c12` [Example 1, 3-Cyano-N-(3-cyano-4-methyl-1H-indol-7-yl)benzenesulfonamide], the concentration for half-maximal inhibition (IC50) is 0.08 µg/mL (≈ 0.238 µM) in the test on aorta pieces of rat, 0.1 µg/mL (≈ 0.297 µM) in test [1] and 10 µg/mL (≈ 29.7 µM) in the test with Mouse B16 melanoma cells. Also, the “size of the tumor compared with that in the group to which no drug was administered” value was found to be 0.2% in test [2] (setting [4]); 0.3% in test [2] (setting [5]); 0.0% in test [2] (setting [6]); 37% in test [3] (setting [4]); 30% in test [3] (setting [5]); 11% in test [3] (setting [6]). In test [3] (overall statement for KP-1 and HCT 116 transplanted nude mice), the antitumor effect result was “significant antitumor effect”.

As to `Cc1cc(NS(=O)(=O)c2cccc(C#N)c2)c2[nH]cc(Br)c2c1` [Example 5, N-(3-Bromo-5-methyl-1H-indole-7-yl)-3-cyanobenzenesulfonamide], the IC50 was found to be 0.15 µg/mL (≈ 0.384 µM) in the test with aorta pieces of rat, 0.98 µg/mL (≈ 2.51 µM) in test [1] and 8.8 µg/mL (≈ 22.5 µM) in the test with Mouse B16 melanoma cells.

Take `Nc1ccc(S(=O)(=O)Nc2ccc(Cl)c3cc[nH]c23)cn1` [Example 7, 6-Amino-N-(4-chloro-1H-indole-7-yl)-3-pyridinesulfonamide]: the IC50 stood at 0.42 µg/mL (≈ 1.3 µM) with aorta pieces of rat, 0.98 µg/mL (≈ 3.04 µM) in test [1] and 7.5 µg/mL (≈ 23.2 µM) in the test with Mouse B16 melanoma cells.

Consider `Cc1ccc(NS(=O)(=O)c2ccc(Cl)nc2)c2[nH]cc(C#N)c12` [Example 2, 6-Chloro-N-(3-cyano-4-methyl-1H-indol-7-yl)-3-pyridinesulfonamide], for which the IC50 with aorta pieces of rat was 0.07 µg/mL (≈ 0.202 µM); in test [1], 0.12 µg/mL (≈ 0.346 µM); with Mouse B16 melanoma cells it was 15 µg/mL (≈ 43.3 µM).

With `N#Cc1ccc(S(=O)(=O)Nc2ccc(Br)c3cc[nH]c23)cc1` [Example 6, N-(4-Bromo-1H-indole-7-yl)-4-cyanobenzenesulfonamide], the half-maximal inhibitory concentration (IC50) with aorta pieces of rat was found to be 0.06 µg/mL (≈ 0.159 µM); in test [1], 1.2 µg/mL (≈ 3.19 µM); in the test with Mouse B16 melanoma cells it was 6.5 µg/mL (≈ 17.3 µM).

Consider `Cc1cc(NS(=O)(=O)c2ccc(S(N)(=O)=O)cc2)c2[nH]cc(Br)c2c1` [Example 3, N-(3-Bromo-5-methyl-1H-indole-7-yl)-4-sulfamoylbenzenesulfonamide], for which the results for the IC50 (with aorta pieces of rat; in test [1]; in the test on Mouse B16 melanoma cells) were 0.1 µg/mL (≈ 0.225 µM), 0.62 µg/mL (≈ 1.4 µM) and 21 µg/mL (≈ 47.3 µM), respectively.

On to `Cc1cc(NS(=O)(=O)c2ccc(C#N)s2)c2[nH]cc(Br)c2c1` [Example 9, N-(3-Bromo-5-methyl-1H-indole-7-yl)-5-cyano-2-thiophenesulfonamide], for which the figures for the IC50 (in the test on aorta pieces of rat; in test [1]; in the test with Mouse B16 melanoma cells) were 0.05 µg/mL (≈ 0.126 µM), 1.6 µg/mL (≈ 4.04 µM) and 8.4 µg/mL (≈ 21.2 µM), respectively.

`Nc1ccc(S(=O)(=O)Nc2ccc(Cl)c3c(Br)c[nH]c23)cn1` [Example 8, 6-Amino-N-(3-bromo-4-chloro-1H-indole-7-yl)-3-pyridinesulfonamide]: the IC50 was found to be 0.05 µg/mL (≈ 0.124 µM) with aorta pieces of rat, 0.49 µg/mL (≈ 1.22 µM) in test [1] and 19 µg/mL (≈ 47.3 µM) in the test with Mouse B16 melanoma cells.

As to `Nc1ccc(S(=O)(=O)Nc2cc(Br)cc3c(Cl)c[nH]c23)cn1` [Example 4, 6-Amino-N-(5-bromo-3-chloro-1H-indole-7-yl)-3-pyridinesulfonamide], the IC50 in the test on aorta pieces of rat amounted to 0.1 µg/mL (≈ 0.249 µM); in test [1], 1.3 µg/mL (≈ 3.24 µM); in the test on Mouse B16 melanoma cells it was 19 µg/mL (≈ 47.3 µM).
